Laboratory results from patent publication US5770623A, “Argine antagonists for inhibition of systemic hypotension associated with nitric oxide production or endothelial derived relaxing factor” (Board of Regents, The University of Texas System, priority 1995, dated 1998).
“Also recorded” adds a separate entry of the source.

Assays:
[1] = test system: mongrel dogs with TNF-induced hypotension; assay: TNF-induced hypotension in anesthetized dogs; type: in vivo, dog; conditions: for effect of L-arginine on NMMA pressor effect (words): TNF- and NMMA-treated dogs
Protocol: (§1) Recombinant human TNF specific activity 2×10^7 units/mg, was from the Niposn Chemical Corporation, Tokyo, Japan. TNF was administered at a dose of 10 mcg/kg in a volume of 10 ml of phosphate buffered saline containing 2 mgs/ml of dog albumin. […] Arginine was obtained from Sigma Chemical Company, St. Louis, Mo.
(§2) Four conditioned mongrel dogs, 2 males and 2 females, weighing 28 to 30 kgs, were studied. Care of the animals were in accordance with the recommendation of the American Association for Accreditation of Laboratory Animals [DHEW(DHHS) publication no. (NIH) 78-23, revised, 1978]. On the day of the experiment, the dogs were fasted overnight. They were anesthetized with phenobarbital (10 mg/kg). They were then intubated orally with a #10 fr. endotracheal tube and ventilated with a Harvard pump ventilator at a rate of 12 breaths per minute and a tidal volume of 15 ml/kg. An arterial line was percutaneously placed in the femoral artery on the day of the experiment.
(§3) Mean (electronic) and phasic systemic arterial pressures (SAP) were continuously recorded on a Hewlett-Packard recording system (model 7758B) using strain gauge manometers (Hewlett-Packard model 1290A) which were connected to the arterial line. Heart rate (HR) was determined from an EKG tracing and continuously recorded on the Hewlett-Packard recording system. Oxyhemoglobin saturation (SaO2) was obtained using a pulse oximeter (BIOX 111, Boulder, Colo.). continuous time-series records of SAP, HR, and SaO2 were obtained using a Lab Master analog-to-digital convertor (16 channel, 12 bit, 30 kHz; Scientific Solutions, Inc.) sampling at 55 Hz and storing the 6 sec averages on a magnetic disk.

[2] = test system: nitroglycerin infused dogs; assay: Nitroglycerin-induced hypotension in dogs (Example 2); type: in vivo, dog
Protocol: as §2, §3
(§4) This was followed by a compensatory decrease in the HR with a return of the BP to baseline. The NMMA-induced bradycardia lasted 31 minutes. This response was not observed in animals which had been previously treated with TNF. In a subsequent experiment (FIG. 7a) the hypotensive response to TNF was especially severe, with a decrease in BP from 125 mm to 36 mmHg. […] This was associated with a decrease in the HR from 101 to 92 beats/minute. […] In a second control study nitroglycerin was infused at a rate of 28 μg/kg/minute, IV, to lower the blood pressure to the same level as that observed with tumor necrosis factor (FIG. 7c).

control dogs = assay: L-NMA in control dogs (Example 4); type: in vivo, dog; conditions: for increase in blood pressure (SAP) by L-NMA: control dogs, L-NMA 20 mg/kg, n=4
Protocol: Animals: Studies were carried out on 12 conditioned mongrel dogs (9 males and 3 females) weighing 22-32 kg (avg=25.3 kg). Animal care was in accordance with the recommendations of the American Association for Accreditation of Laboratory Animal Care, and met all standards prescribed by the Guide for the Care and Use of Laboratory Animals (Guide for the Care and Use of Laboratory Animals (1978) Dept. of Health, Education and Welfare, Washington, D.C. (Publ. No. 78-23). Animal protocols were approved by The University of Texas Animal Welfare Committee. The dogs were fasted overnight prior to the day of experimentation. They were anesthetized with sodium pentobarbital (25 mg/kg I.v.). Dogs were then endotracheally intubated and ventilated with a piston-driven respirator (Harvard instruments) using room air at a tidal volume of 20 ml/kg and at a rate of 10 to 12 breaths per minute, adjusted to achieve a normal arterial pH and pCO2 (Instrumentation Laboratories 1L13012 pH/Blood Gas Analyzer). Catheters were placed percutaneously into the femoral and pulmonary arteries; In the latter, a flow-directed thermal-dilation catheter was used (Abbott Critical Care Systems).
Physiologic measurements: Mean SAP and heart rate were continuously monitored (Parametron 7048 Monitoring System, Roche) and stored on a magnetic disk using an analog-to-digital converter (Scientific Solutions, Inc.). Cardiac output (CO) was determined as the mean of six measurements by thermal-dilution. Systemic vascular resistance was calculated as (SAP X80)/CO and expressed as […].
Protocol: After the blood pressure and heart rate stabilized, endotoxin (40 ug/kg, in 10 ml of phosphate-buffered saline (PBS), pH 7.4) was infused i.v. over 2 minutes. This dose of endotoxin typically induces severe and often lethal cardiovascular collapse in the dog. Blood pressure was monitored, and when either SAP fell below 60 mmHg or a stable nadir in systemic arterial pressure (SAP) was maintained for 10 minutes, L-NMA was administered (20 mg/kg in 5 ml of PBS i.v. over 1 min.). In most experiments, L-arginine (400 mg/kg in 20 mi PBS) was administered ten minutes later by i.v. infusion over 2 minutes. In control experiments, dogs without prior exposure to endotoxin received L-NMA alone. To simulate the hypotension observed in dogs receiving endotoxin, one group of dogs received a continuous i.v. infusion of nitroglycerin (2 mg/ml) at a rate adjusted to maintain the SAP at 60-70 mm Hg. Nitroglycerin-treated dogs then received L-NMA (20 mg/kg) and 20 minutes later L-arginine was administered […].

untreated dogs [3] = type: in vivo, dog
Protocol: as §1, §2, §3, §4

rat aorta = assay: ACh-induced relaxation of rat aorta; conditions: NMMA 5 μM
Protocol: Guinea pig pulmonary artery (GP PA), rat and rabbit aorta (Ao), and dog coronary (CA) and femoral artery (FA) were precontracted with NE (1 μM) and relaxed with a single concentration of ACh. Concentration of ACh: GP PA 1 μM, rat Ao […], rabbit Ao 0.3, dog CA […] and […] 0.1 μM. […] The concentrations of L-citrulline (L-cit), D-arginine (D-arg) and L-arginine (L-arg) were all 0.5 mM. Bars are mean values±SEM (n=4-6).

[4] = biological target: EMT6 enzyme system (NO formation from L-arginine) (Mus musculus, UniProt P29477); assay: Arginine-dependent nitrite synthesis by cytosol of stimulated EMT6 cells; type: biochemical, murine; conditions: Lineweaver-Burke
Sequence of EMT6 enzyme system (NO formation from L-arginine) (P29477 whole entry): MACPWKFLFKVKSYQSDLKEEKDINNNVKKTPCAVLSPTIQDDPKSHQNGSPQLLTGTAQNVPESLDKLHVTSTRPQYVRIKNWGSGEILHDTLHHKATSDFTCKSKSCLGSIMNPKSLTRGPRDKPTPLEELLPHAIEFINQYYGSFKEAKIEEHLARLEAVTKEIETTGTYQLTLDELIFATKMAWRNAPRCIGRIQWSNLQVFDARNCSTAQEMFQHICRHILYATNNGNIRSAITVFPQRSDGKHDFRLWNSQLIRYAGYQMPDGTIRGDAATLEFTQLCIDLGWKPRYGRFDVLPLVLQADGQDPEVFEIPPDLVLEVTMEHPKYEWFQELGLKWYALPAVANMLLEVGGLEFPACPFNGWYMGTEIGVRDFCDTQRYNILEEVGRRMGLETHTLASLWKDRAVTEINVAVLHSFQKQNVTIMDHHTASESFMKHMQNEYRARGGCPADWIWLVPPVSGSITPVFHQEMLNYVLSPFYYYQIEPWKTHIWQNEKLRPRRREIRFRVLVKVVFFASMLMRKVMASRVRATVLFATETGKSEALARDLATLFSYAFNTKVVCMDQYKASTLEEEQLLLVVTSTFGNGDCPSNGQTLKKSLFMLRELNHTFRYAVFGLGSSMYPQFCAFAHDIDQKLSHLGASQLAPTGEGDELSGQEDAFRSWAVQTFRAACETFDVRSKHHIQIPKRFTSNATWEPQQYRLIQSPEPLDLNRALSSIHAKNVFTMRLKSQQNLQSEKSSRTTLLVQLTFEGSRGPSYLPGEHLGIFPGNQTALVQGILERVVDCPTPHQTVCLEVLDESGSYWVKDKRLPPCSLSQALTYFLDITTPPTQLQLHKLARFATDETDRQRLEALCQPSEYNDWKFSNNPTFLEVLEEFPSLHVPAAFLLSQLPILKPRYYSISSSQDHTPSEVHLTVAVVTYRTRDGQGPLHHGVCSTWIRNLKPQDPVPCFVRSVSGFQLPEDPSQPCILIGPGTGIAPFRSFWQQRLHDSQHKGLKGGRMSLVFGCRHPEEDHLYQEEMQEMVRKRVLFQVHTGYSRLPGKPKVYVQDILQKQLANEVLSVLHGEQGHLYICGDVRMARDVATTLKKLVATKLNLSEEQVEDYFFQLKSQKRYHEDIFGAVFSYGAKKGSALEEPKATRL
Protocol: Thus EMT6 cytosolic preparations (i.e., cell-free solutions) were prepared and an enzyme activity was characterized which forms NO and citrulline from arginine. This reaction requires NADPH (FIG. 18 and 19) and other cofactors.
Incubation mixtures were 100 μl total volume containing: 40 μl cytosol (100,000×g supernatant), 2 mM L-arginine, 2 mM NADPH, 20 mM TRIS (pH 8.0) and a "cocktail" of protease inhibitors.
From kinetic studies an apparent Michaelis-Menton constant for L-arginine utilization by the enzyme was deduced. FIG. 20 is a Lineweaver-Burke plot for synthesis of nitrite from L-arginine by cytosol from stimulated EMT6 cells. The rate of nitrite formation was evaluated over a range of L-arginine (ARG) concentrations (from 0.03-2.0 mM) under conditions similar to that described for FIG. 18, except that incubates contained 50 μl cytosol in a total volume of 80 μl. Open and filled circles represent results obtained with each of two cytosol preparations. […] N^G -substituted arginine analogs were screened for precise quantitation of their ability to inhibit arginine-dependent NO formation by the EMT6 enzyme system.

untreated dogs [5] = assay: NMMA in untreated dogs (Example 5); type: in vivo, dog
Protocol: Administration of ET to dogs was clearly more toxic and less predictable than TNF administration. […] Within 1.5 minutes the blood pressure increased by 33±2.5 mmHg.

[6] = test system: murine endothelial cells exposed to Gamma-Interferon and TNF (nitric oxide production); conditions: mouse endothelial cells, immunomodulators and endotoxin; cited from earlier work

Compound: N=C(N)NCCC[C@H](N)C(=O)O [L-arginine, reference compound]
- blood pressure after L-arginine ([1]; FIG. 7a, after TNF and NMMA): 37 mmHg
- effect of L-arginine on NMMA pressor effect (words) [1]: antagonized; also recorded: completely reversed; also recorded: rapid decrease of blood pressure
- effect of L-arginine on NMMA pressor effect (words) ([1]; listed as arginine): reversed
- effect of L-arginine after NMMA ([2]; nitroglycerin infused dogs): reversed this modest effect
- effect of L-arginine on pressor effect of L-NMA (control dogs; 400 mg/kg): fully reversed the pressor effect of L-NMA

Compound: CNC(=N)NCCC[C@H](N)C(=O)O [NMMA, N^G -methyl-L-arginine]
- blood pressure after NMMA ([1]; FIG. 7a, TNF-treated): 115 mm
- increase in blood pressure by NMMA ([1]; FIG. 7a, TNF-treated): 79 mm
- time to pressor effect ([1]; after TNF): ≤ 2 min
- pressor response in TNF-hypotensive vs normotensive dogs ([1]; compared with normotensive dogs): much more dramatic in dogs with TNF-induced hypotension than in normotensive dogs
- reversal of TNF-associated hypotension ([1]; dogs, TNF 10 mcg/kg): blocked; also recorded: reverse the hypotension
- duration of NMMA-induced bradycardia (untreated dogs [3]; dog, in vivo): 31 min
- time to initial blood pressure increase (untreated dogs [3]; untreated dogs (n=3), NMMA alone): ≤ 1.7 min
- time within which blood pressure increased (untreated dogs [3]; untreated dogs, FIG. 7b): ≤ 2 min
- blood pressure increase by NMMA (untreated dogs [3]; untreated dogs, FIG. 7b, within 2 minutes): 12 mmHg
- HR after NMMA (untreated dogs [3]; untreated dogs, FIG. 7b, decrease from 101): 92 beats/minute
- blood pressure increase by NMMA ([2]; nitroglycerin 28 μg/kg/minute IV): 14 mm
- antagonism of nitroglycerin hypotension ([2]; similar level of hypotension): not antagonized
- inhibition of EDRF/NO in vascular preparation (rat aorta): arginine reversible inhibitor of EDRF/NO
- mode of inhibition [4]: competitive inhibitor
- Cardiac Output (control dogs; Table 2, control dogs (n = 4)): 2.12 ± 0.26 L/min
- Heart Rate (control dogs; Table 2, control dogs (n = 4)): 82.5 ± 6.1 beats/min
- Systemic Arterial Pressure (control dogs; Table 2, control dogs (n = 4)): 153.8 ± 11.4 mmHg
- Systemic Vascular Resistance (control dogs; Table 2, control dogs (n = 4)): 5967 ± 523 dynes-sec/cm^5
- increase in blood pressure (SAP) by L-NMA (control dogs; listed as L-NMA): 24.8±2.7 mmHg
- increase in blood pressure (SAP) by L-NMA (control dogs; listed as N^G -methyl-L-arginine): 24.8±4.7 mmHg
- increase in SVR (control dogs; other two control dogs): about 1400 dynes-sec/cm^5
- decrease in cardiac output (control dogs; two of four control dogs): > 1.5 L/min
- increase in SVR (control dogs; two of four control dogs with marked decrease of cardiac output): ≥ 3500 dynes-sec/cm^5
- increase in blood pressure by NMMA (untreated dogs [5]; normal untreated dog, compared with 20 mg/kg NMMA in lethal shock): 35 mm
- increase in blood pressure by NMMA (untreated dogs [5]; untreated animals): 12 mm Hg
- effect on nitrite accumulation [6]: blocked
